In PubChem BioAssay (NCI) one finds TGI data, which are given here for 6 compounds.

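Growth conditions: 96-well plates. Treatment: test compound, 48 hours, 5 concentrations. Analysis: linear interpolation between bracketing concentrations; unreached endpoints set to highest concentration. TGI is the concentration that stops growth completely.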

Among the test systems are 786-0 renal; A498 renal; ACHN renal; CCRF-CEM leukemia; EKVX NSCLC; HCC-2998 colon; HL-60(TB) leukemia; HOP-62 NSCLC; HOP-92 NSCLC; IGROV1 ovarian; K-562 leukemia; M14 melanoma; MDA-MB-231 breast; MDA-N; NCI-H23 lung; SF-295 CNS; SK-MEL-28 melanoma; SK-OV-3 ovarian; U251 CNS; UO-31 renal.
Holding throughout (assay): DTP human tumour cell line panel, 48 h

On to `CC1CC[C@@]2(OC1)OC1C[C@H]3[C@@H]4CC[C@H]5CC(OC6OC(CO)C(OC7OC(CO)C(O)C(O)C7O)C(O)C6O)CCC5(C)[C@H]4CCC3(C)C1[C@@H]2C` (stereo partly drawn), for which the TGI in the test on 786-0 renal was determined as 15.6 µM; in the test with A498 renal, 16.3 µM; in the test with ACHN renal, 14.5 µM; in the test on CCRF-CEM leukemia it was 21.7 µM; in the test with EKVX NSCLC it was 12.2 µM; in the test with HCC-2998 colon, 12.9 µM. The total growth inhibition concentration (TGI) was 18.5 µM with HL-60(TB) leukemia; 16.1 µM in the test with HOP-62 NSCLC; 16.5 µM with HOP-92 NSCLC; 9.77 µM in the test with IGROV1 ovarian; 42.6 µM with K-562 leukemia; 18.2 µM in the test with M14 melanoma. Further, the total growth inhibition concentration (TGI) in the test with MDA-MB-231 breast turned out to be 17.2 µM; in the test on MDA-N, 16.3 µM; in the test with NCI-H23 lung it was 16.2 µM; in the test with SF-295 CNS it was 16.4 µM; in the test on SK-MEL-28 melanoma it was 16.6 µM; in the test with SK-OV-3 ovarian it was 18.7 µM. Further, the values for the total growth inhibition concentration (TGI) in the test on U251 CNS and in the test with UO-31 renal were 17.4 µM and 22.5 µM, respectively.

With `CCc1cc2c(cc1CCCC(=O)O)CC1(Cc3ccc(C(=O)O)cc3C1)C2` (stereo not drawn), the TGI in the test on 786-0 renal, in the test on A498 renal, in the test with ACHN renal, in the test with CCRF-CEM leukemia, with EKVX NSCLC and in the test on HCC-2998 colon was greater than 100 µM throughout. Moreover, the TGI in the test with HL-60(TB) leukemia, in the test with HOP-62 NSCLC, in the test on HOP-92 NSCLC, in the test with IGROV1 ovarian, in the test on K-562 leukemia and with M14 melanoma was greater than 100 µM in each case. Further, the total growth inhibition concentration (TGI) in the test with MDA-MB-231 breast, in the test on MDA-N, in the test on NCI-H23 lung, with SF-295 CNS, in the test with SK-MEL-28 melanoma and in the test on SK-OV-3 ovarian was greater than 100 µM throughout. The TGI in the test with U251 CNS and in the test on UO-31 renal was greater than 100 µM each time.

Take `O=C1C=CC(=O)c2c(O)c(N[C@@H](Cc3ccccc3)C(=O)OCc3ccccc3)c(Cl)c(O)c21`: the TGI in the test with 786-0 renal, in the test with A498 renal, with ACHN renal, in the test with CCRF-CEM leukemia, in the test with EKVX NSCLC and with HCC-2998 colon was greater than 10 µM each time. Besides, the concentration for total growth inhibition (TGI) is greater than 10 µM in the test with HL-60(TB) leukemia; greater than 10 µM in the test with HOP-62 NSCLC; greater than 10 µM in the test on HOP-92 NSCLC; greater than 10 µM with IGROV1 ovarian; greater than 10 µM in the test on M14 melanoma; 8.43 µM in the test with MDA-MB-231 breast. For the same compound, the TGI in the test on MDA-N, in the test on NCI-H23 lung, in the test on SF-295 CNS, in the test with SK-MEL-28 melanoma, in the test with SK-OV-3 ovarian and in the test on U251 CNS was greater than 10 µM in each case.

For `O=[N+]([O-])c1ccc(N=NN2CCCC2)cc1`, the TGI with 786-0 renal was greater than 100 µM; with A498 renal it was greater than 100 µM; in the test on ACHN renal, greater than 100 µM; in the test on CCRF-CEM leukemia, greater than 100 µM; in the test with EKVX NSCLC, greater than 100 µM; with HCC-2998 colon, 20.6 µM. The concentration for total growth inhibition (TGI) in the test with HL-60(TB) leukemia, with HOP-62 NSCLC, in the test with HOP-92 NSCLC, with IGROV1 ovarian, with K-562 leukemia and in the test on M14 melanoma was greater than 100 µM throughout. For the same compound, the TGI in the test with MDA-MB-231 breast, in the test with MDA-N, in the test with NCI-H23 lung, with SF-295 CNS, with SK-OV-3 ovarian and in the test on U251 CNS was greater than 100 µM each time. This compound also came in with a total growth inhibition concentration (TGI) in the test on UO-31 renal greater than 100 µM.

For the compound `Cc1nnc2sc(-c3ccc(-c4ccccc4Cl)o3)nn12`, the concentration for total growth inhibition (TGI) in the test with 786-0 renal is 80.1 µM; with A498 renal, greater than 100 µM; in the test on ACHN renal, greater than 100 µM; with CCRF-CEM leukemia it was greater than 100 µM; in the test on EKVX NSCLC, greater than 100 µM; in the test on HCC-2998 colon it was 64.4 µM. In addition, the TGI in the test on HL-60(TB) leukemia was 63.3 µM; in the test with HOP-62 NSCLC it was greater than 100 µM; in the test with HOP-92 NSCLC, greater than 100 µM; in the test on IGROV1 ovarian it was greater than 100 µM; in the test with K-562 leukemia, 56.8 µM; in the test with M14 melanoma, greater than 100 µM. Besides, the TGI in the test on MDA-MB-231 breast is greater than 100 µM; with MDA-N it was 40.6 µM; in the test on NCI-H23 lung, 74.2 µM; in the test on SF-295 CNS, greater than 100 µM; in the test with SK-OV-3 ovarian it was greater than 100 µM; in the test on U251 CNS, greater than 100 µM. In the test on UO-31 renal, this compound came in with a TGI greater than 100 µM.

Take `CC(C)(C)OC(=O)CN1CCNCCN(CC(=O)OC(C)(C)C)CC1`: the TGI with 786-0 renal, in the test on A498 renal, in the test with ACHN renal, in the test with CCRF-CEM leukemia, in the test with EKVX NSCLC and in the test with HCC-2998 colon was greater than 100 µM throughout. For the same compound, the total growth inhibition concentration (TGI) with HL-60(TB) leukemia is 86.1 µM; in the test on HOP-62 NSCLC, greater than 100 µM; with HOP-92 NSCLC, greater than 100 µM; with IGROV1 ovarian it was greater than 100 µM; in the test with K-562 leukemia, greater than 100 µM; in the test with M14 melanoma, greater than 100 µM. For the same compound, the total growth inhibition concentration (TGI) in the test with MDA-MB-231 breast, in the test on MDA-N, in the test on SF-295 CNS, in the test with SK-OV-3 ovarian and in the test on UO-31 renal was greater than 100 µM throughout.

The term TGI denotes the concentration giving total growth inhibition. Higher therefore signals lower sensitivity of the cells.
